The values below come from publication PMC4410478, “Larvicidal activity and possible mode of action of four flavonoids and two fatty acids identified in Millettia pinnata seed toward three mosquito species” (Parasites & Vectors, 2015).

For test [1], the system named is third instar Aedes aegypti larvae. The test can be described thus: direct-contact mortality bioassay. The note with it: Aedes aegypti, 24 h, read-out: LC50, mg/L (95% CL). As to the method: (§1) A direct-contact mortality bioassay was used to evaluate the toxicity of all compounds to third instar larvae from the susceptible and wild mosquito populations. Each compound in acetone (for karanjin) or methanol (for the other compounds) was suspended in distilled water with Triton X-100 (20 μL/L). Groups of 20 mosquito larvae were separately put into paper cups (270 mL) containing each test compound solution (250 mL). The OPs temephos and fenthion served as positive controls and were similarly formulated. Negative controls consisted of the acetone– or methanol–Triton X-100 solution in distilled water. […] Treated and control (acetone– or methanol–Triton X-100 solution only) larvae were held under the same conditions as those used for colony maintenance. […] All treatments were replicated three times using 20 larvae per replicate.
(§2) In separate experiments, the efficacy of the 12 experimental liquid formulations was evaluated, as stated previously. Groups of 20 mosquito larvae were separately put into paper cups containing each test solution. Temephos 200 g/L EC served as a positive control. Negative controls consisted of the ethoxylated castor oil + polyoxyethylene dodecyl mono ether solution in distilled water or water. Mortalities were recorded, as stated previously. All treatments were replicated three times using 20 larvae per replicate.
(§3) Data were corrected for control mortality using Abbott’s formula [36]. The percentages of mortality were transformed to arcsine square-root values for analysis of variance (ANOVA). […] IC50 values and cAMP levels were subjected to ANOVA. The Bonferroni multiple-comparison method was used for comparison of means. Means ± SE of untransformed data are reported. Concentration–mortality data were subjected to probit analysis.

Test [2] concerns third instar Culex pipiens pallens larvae. The test can be described thus: direct-contact mortality bioassay. Particulars: Culex pipiens, 24 h, read-out: LC50, mg/L (95% CL). The method, then: as §1, §2, §3
Test [3] deals with third instar larvae from wild Aedes albopictus. The test can be described thus: direct-contact mortality bioassay. Particulars: Aedes albopictus, 24 h, read-out: LC50, mg/L (95% CL). As to the method:
as §1, §2, §3

Test [4] has as its target AChE from A. aegypti larvae (Aedes aegypti, UniProt A4GND7). The test can be described thus: Acetylcholinesterase assay (microplate). Type of test: biochemical. Particulars: acetylthiocholine iodide hydrolysis at 30°C and pH 8.0. The method, then:
Third instar larvae of A. aegypti was used in all experiments. […] After filtering through cheese cloth, the homogenate was centrifuged at 1000 g at 4°C for 5 min. The supernatant was used as the acetylcholinesterase (AChE) preparation. Protein content was determined by the Bradford dye method using BSA as the standard. Microplate AChE assay was carried out following the method of Hemingway et al. adapted from Ellman et al.. The reaction mixture consisted of 50 μL of the crude enzyme preparation, 150 μL of 0.1 M phosphate buffer, 20 μL of 3 mM DTNB in phosphate buffer (pH 7.0), and 1 μL of various concentrations of each test compound in ethanol. The reaction mixture was incubated at 30°C for 5 min and 20 μL of 32 mM ATChI was then added to the mixture. After incubation for 30 min, the reaction was stopped by adding 20 μL of 5 mM eserine salicylate. The absorbance was recorded at 412 nm using a VersaMax microplate reader (Molecular Devices, Sunnyvale, CA). Results were expressed as mean ± SE of triplicate samples of three independent experiments.
IC50 values and cAMP levels were subjected to ANOVA. […] Means ± SE of untransformed data are reported. Concentration–mortality data were subjected to probit analysis.

Test [5] has as its system octopamine sensitive adenylate cyclase, whole body homogenate from third instar A. aegypti larvae. The test can be described thus: Determination of cyclic AMP level (octopamine sensitive adenylate cyclase activity). It counts as biochemical, Aedes aegypti. The note with it: 100 μM test compound; octopamine 100 μM alone as comparator. The method, then:
The in vitro octopamine sensitive adenylate cyclase activity was investigated according to the modified method of Pratt and Pryor [35]. The whole bodies of 75 third instar A. aegypti larvae (106.2 mg) were homogenized in 500 μL of 2 mM Tris-maleate buffer (pH 7.4) containing 0.8 mM ethylene glycol tetraacetic acid (EGTA). Adenylate cyclase activity was measured using a cAMP Biotrak Enzyme immunoassay system according to the manufacturer’s instructions. The assay was conducted in a total volume of 100 μL containing 80 mM Tris-maleate buffer, 5 mM theophylline (to inhibit phosphodiesterase activity), 2 mM MgSO4, 0.5 mM adenosine triphosphate (ATP), 0.2 mM EGTA, 50 μL of whole body homogenate (equivalent to 4.22 μg protein), and 1 μL of the test compounds in Tris-maleate buffer containing 0.2% ethanol. After incubation for 5 min at 20°C, the reaction was initiated by the addition of ATP. Incubation was carried out at 30°C for 3 min in a shaking water bath. The reaction was terminated by boiling for 2 min, and then the assay tube was cooled and centrifuged for 10 min at 8000 g. The 50 μL aliquots of the supernatant were assayed for cAMP level.
The polystyrene microplates (1 strip of 8 wells) coated with a goat anti-mouse polyclonal antibody were used. Fifty microliters of primary antibody (mouse monoclonal antibody) solution was added to each well except the blank wells (or the nonspecific binding (NSB) wells). The wells covered with the adhesive strip were incubated for 1 h at 25°C in a shaking incubator (480 rpm), followed by four times washing steps, each with 400 μL of wash buffer. The 50 μL of the test samples for cAMP determination and cAMP standard were added to wells. Control, blank (NSB), and zero standard wells were added with 50 μL of the diluent RD5-55 buffer. The 50 μL of cAMP conjugate (horseradish peroxidase-labeled cAMP) was then added to wells. The plate covered with a new adhesive strip was incubated for 2 h at 25°C on the shaker, followed by the four times washing steps. Then, 200 μL of substrate solution (equal volume of stabilized hydrogen peroxide and stabilized chromogen) was added to each well, and the test plate was incubated for 30 min at 25°C on the benchtop in darkness. Finally, the reaction was stopped by adding 100 μL of stop solution (2 N sulfuric acid) to each well. Optical densities at 450 and 540 nm were measured using the VersaMax microplate reader. The readings at 540 nm were subtracted from the readings at 450 nm. The cAMP concentrations were expressed as nmol/μg protein. Results were expressed as mean ± SE of duplicate samples of three independent experiments.

Converted amounts (≈) assume the structure as drawn.

Chain of AChE from A. aegypti larvae (A4GND7 37-679): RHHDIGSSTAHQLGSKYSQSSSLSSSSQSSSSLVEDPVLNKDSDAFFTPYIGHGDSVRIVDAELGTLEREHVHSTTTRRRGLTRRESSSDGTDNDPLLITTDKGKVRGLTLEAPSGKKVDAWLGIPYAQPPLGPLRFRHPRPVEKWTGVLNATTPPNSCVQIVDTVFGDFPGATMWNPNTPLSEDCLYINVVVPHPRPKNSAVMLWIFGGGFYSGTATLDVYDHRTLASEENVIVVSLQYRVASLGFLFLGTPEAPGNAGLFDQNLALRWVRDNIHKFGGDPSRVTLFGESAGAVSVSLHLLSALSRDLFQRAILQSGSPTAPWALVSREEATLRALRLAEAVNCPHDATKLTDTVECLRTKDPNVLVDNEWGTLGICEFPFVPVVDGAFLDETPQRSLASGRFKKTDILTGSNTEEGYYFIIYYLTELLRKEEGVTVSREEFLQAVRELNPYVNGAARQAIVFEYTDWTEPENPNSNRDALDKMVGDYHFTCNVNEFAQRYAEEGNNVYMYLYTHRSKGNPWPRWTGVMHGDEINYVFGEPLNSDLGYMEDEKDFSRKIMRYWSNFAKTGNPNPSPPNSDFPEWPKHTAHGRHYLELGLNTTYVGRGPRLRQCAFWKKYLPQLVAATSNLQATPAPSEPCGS

Regarding `CCCCCCCCCCCCCCCC(=O)O` [Palmitic acid (4), palmitic acid], the LC50 in test [1] amounted to 43 mg/L (≈ 168 µM); in test [2] it was 34.5 mg/L (≈ 135 µM); in test [3], 85.6 mg/L (≈ 334 µM). Moreover, the “AChE inhibition IC50” value in test [4] is recorded as “lowest of any of the compounds examined”. Besides, the “cAMP level compared with that induced by octopamine” value in test [5] is recorded as “significantly lower than that induced by octopamine”.
